Experiments:
[1] = system: blood brain barrier permeability (CSF protein); experiment: Rabbit model for meningitis: protein in CSF (blood brain barrier permeability); assay type: in vivo, New Zealand white rabbits; conditions: for Protein in CSF: 6 hours after challenge; for protein influx into CSF and generation of lactate (in words): 10 μM peptides (Table 10); for Total protein in CSF, 6 hours: 6 hours after inoculation (Example 11, 1 μM peptide; FHA 0.1 μM); for Total protein in CSF, 7 hours: 7 hours after inoculation (Example 11, 1 μM peptide; FHA 0.1 μM)
Description: The rabbit model was performed according to an established protocol. Specific pathogen free, New Zealand white rabbits (2 kg; Hare Marland, Nutley, N.J.) were anesthetized with valium (2.5 mg/kg, subcutaneously, Hoffman-LaRoche, Nutley, N.J.), ketamine (35 mg/kg, intra-muscularly, Aveco, Fort Dodge, Iowa) and xylazine (5 mg/kg, intramuscularly, Miles Laboratories, Shawnee, Kans.) and a helmet of dental acrylic was affixed to the calvarium. Twenty four hours later, the rabbits were anesthetized with ethyl carbamate (1.75 g/kg; Aldrich Chemical Co., Milwaukee, Wis.) and pentobarbital (15 mg/kg; Abbott Laboratories, Abbott Park, Ill.) and placed in a stereotaxic frame. A spinal needle was introduced into the cisterna magna and 300 μl of CSF was withdrawn. The animals were challenged intracisternally with 10^8 heat killed, unencapsulated pneumococcus strain R6 introduced in 200 μl of saline (time 0). One hour later, animals were treated with peptides dissolved in 1 ml of saline by intravenous injection into the right marginal ear vein. The concentration of FHA was 0.1 μM and that of the FHA Ia, Factor X II, and scrambled FHA II peptides was 10 μM. For the acetyl-FHA II, acetyl/amide-FHA II, dimer of FHA II and trimer of FHA II peptides, the concentration was 10^-3 μM. The concentration of FHA II is given in the results section. Samples of CSF were withdrawn at hourly intervals after pneumococcal inoculation and leukocyte density was measured using a cell counter (Coulter Electronics Inc., Hialeah, Fla.). CSF samples were centrifuged at 10,000×g for 5 minutes and the supernatant was stored at -70° C. until assayed for protein concentration using the bicinchoninic acid method (ECA Kit, Pierce Chemical Co., Rockford, Ill.) and for lactate concentration (Lactate Detection Kit, Sigma, St. Louis, Mo.). Statistically significant differences between treatments were determined by a one way analysis of variance test.
Loss of barrier function of the cerebral capillary endothelium during inflammation is reflected by an influx of serum proteins into the CSF. […] To examine if the peptides were able to ameliorate these measures of cerebral injury, CSF protein and lactate concentrations were measured hourly in peptide-treated and control animals (Table 10).
Mean values for CSF lactate and protein at time 0 were 18.6±5.8 and 0.8±0.2 respectively. Ten control animals received phosphate-buffered saline. The concentration of FHA II intravenously injected one hour after challenge with pneumococci was 10 μM. Values represent mean±standarddeviation of concentrations in CSF at 6 hours after pneumococcal challenge (n≥4 for peptide treated animals; n=4 for FHA). *Statistically significant difference as compared to control at p<0.02 (Mann-Whitney test).
Again, mean values for CSF lactate and protein at time 0 were 18.6±5.8 and 0.8±0.2, respectively. Ten control animals received phosphate-buffered saline. The concentrations of FHA II intravenously injected was 10^-3 μM. Values represent mean±standard deviation of concentrations in CSF at 6 hours after pneumococcal administration (n≥4 per group).
The anti-inflammatory effects of the administered peptides were assessed in the rabbit model for meningitis by the procedures described in Example 10. The animals received 1 ml of 1 uM peptide intravenously. In a slight departure from the protocol described in Example 10, samples of blood were drawn from the left marginal ear vein 30 minutes after the administration of the peptides to determine peripheral leukocyte concentrations.
Values represent mean ±standard deviation of at least four animals per group. ^1 Time after intracisternal inoculation of pneumococci. *Statistically significant difference as compared to control at p<0.02 (Mann-Whitney test).

CD11b/CD18 = target: T1, CD11b/CD18 (Homo sapiens, UniProt P05107+P11215); experiment: Downmodulation of CD11b/CD18 on macrophages (binding of C3bi-coated erythrocytes); assay type: cell-based; conditions: peptides 0.5 mM
T1 construct: peptide-coated wells, C3bi-erythrocyte rosetting
Description: FIG. 27 is a bar graph representation of the downmodμlation of CD11b/CD18 by FHA-peptides. mAb IB4 (50 μg/ml) served as a positive control. Data represent means±standard deviations of triplicate experiments with 6 wells/peptide.
Human monocytes were purified from buffy coats on Percoll gradients and cultured in 12.5% human serum in Teflon beakers. Macrophages were harvested from Teflon beakers after 6-8 days and suspended in HAP buffer. Terasaki wells were coated with 5 μl of peptides (0.5 mM) or anti-CD18 mAb IB4 (50 μg/ml). Control wells were coated with HAP. After 2 hours of incubation at RT, 5 μl of macrophages (5×10^5 /ml HAP) were added and allowed to spread for 45 mins. at 37° C. […] IgM-coated erythrocytes in buffer served as negative control. After washing, the number of erythrocytes bound per 100 leukocytes (adherence index) was quantitated visually under an inverted microscope.

T1 sequence (P05107 23-769, other chains not shown): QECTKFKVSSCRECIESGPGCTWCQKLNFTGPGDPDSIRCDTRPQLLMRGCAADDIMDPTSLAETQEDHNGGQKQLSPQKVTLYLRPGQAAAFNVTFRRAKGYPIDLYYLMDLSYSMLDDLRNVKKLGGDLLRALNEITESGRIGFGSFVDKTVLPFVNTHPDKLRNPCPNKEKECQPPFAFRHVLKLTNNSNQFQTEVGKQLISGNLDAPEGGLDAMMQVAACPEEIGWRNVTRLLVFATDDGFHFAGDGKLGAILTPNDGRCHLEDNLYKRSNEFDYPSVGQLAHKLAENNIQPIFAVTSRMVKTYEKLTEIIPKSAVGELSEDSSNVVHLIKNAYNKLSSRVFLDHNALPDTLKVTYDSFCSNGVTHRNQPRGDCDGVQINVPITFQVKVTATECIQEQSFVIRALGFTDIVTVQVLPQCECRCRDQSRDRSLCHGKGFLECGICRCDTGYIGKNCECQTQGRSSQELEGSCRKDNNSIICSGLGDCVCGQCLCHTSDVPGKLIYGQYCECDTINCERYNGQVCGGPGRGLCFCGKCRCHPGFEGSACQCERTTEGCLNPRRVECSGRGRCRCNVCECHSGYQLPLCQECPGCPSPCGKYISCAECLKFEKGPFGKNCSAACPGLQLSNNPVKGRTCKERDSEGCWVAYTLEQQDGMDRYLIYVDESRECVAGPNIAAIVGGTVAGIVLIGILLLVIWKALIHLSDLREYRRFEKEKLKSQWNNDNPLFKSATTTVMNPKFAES

Row | Substance | Protein in CSF ([1]; peptides 10 μM, FHA 0.1 μM) [mg/ml CSF] | protein influx into CSF and generation of lactate (in words) [1] | Total protein in CSF, 6 hours [1] [mg/mL] | Total protein in CSF, 7 hours [1] [mg/mL] | downmodulation of CD11b/CD18 (in words) (CD11b/CD18) | also measured
1 | DEETVK [scrambled FHA II, reference compound] | 1.9 ± 0.3 | – | – | – | – | –
2 | native FHA: Filamentous hemagglutinin, 220kD surface associated protein of Bordetella pertussis (List Biologicals) | 1.3 ± 0.3 | significantly protective for protein influx and lactate generation | 1.70 ± 0.33 | 1.86 ± 0.76 | – | –
3 | GYDTKQEDG [Factor X II] | 1.6 ± 0.7 | no significant reduction | – | – | – | –
4 | Ac-ETKEVDG-NH2 [Acetyl/Amide-FHA II] | 1.2 ± 0.6 | significantly reduced protein influx into the CSF and generation of lactate | – | – | – | –
5 | AADPHQGVLAQGDIIMDAKG [FHA Cc] | – | – | 1.36 ± 0.16 | 1.90 ± 0.22 | no significant effect | –
6 | ETKEVDG [FHA II] | 1.4 ± 0.6 | significantly reduced protein influx into the CSF and generation of lactate | – | – | – | protein and lactate in CSF (in words) ([1]; 10^-3 μM): ineffective at this dose; Protein in CSF ([1]; 10^-3 μM): 2.45 ± 0.22 mg/ml CSF
7 | RADPHQGVLAQGDIIMDAKG [FHA Cb] | – | – | 1.91 ± 0.24 | 2.28 ± 0.28 | no significant effect | –
8 | LGYQAK (UniProt P12255 1979-1984, looked up, fragment) [FHA Ia] | 1.8 ± 0.4 | no significant reduction | – | – | – | –
9 | GTLLLRNDALTENGTVTISA [FHA Cd] | – | – | 1.71 ± 0.19 | 2.03 ± 0.57 | no significant effect | –
10 | RGDPHQGVLAQGDIIMDAKG [FHA Ca] | – | – | 1.18 ± 0.39 | 1.69 ± 0.41 | – | influx of serum protein into CSF (in words) ([1]; 1 μM, entire observation period): reduced the influx of serum protein significantly during the entire observation period; reduction of binding of C3bi-coated erythrocytes to macrophages (CD11b/CD18; IB4 50 μg/ml): 61±7%

From patent US5792457A, “Antibody recognizing endothelial cell ligand for leukocyte CR3” (priority 1995, dated 1998)
